Laboratory results reported in ChEMBL document CHEMBL1144329, “De novo design, synthesis, and in vitro activity of LFA-1 antagonists based on a bicyclic[5.5]hydantoin scaffold” (Bioorg Med Chem Lett, 2005).

Target: Intercellular adhesion molecule (ICAM-1), Integrin alpha-L/beta-2 (Homo sapiens, UniProt P05107+P20701)
Experiment: Inhibitory concentration against leukocyte function-associated antigen-1 in HSB-2 human lymphoblast and H1HeLa cell adhesion assay
Type: functional, cell-based, H1-HeLa

Intercellular adhesion molecule (ICAM-1), Integrin alpha-L/beta-2, sequence (P20701 whole entry): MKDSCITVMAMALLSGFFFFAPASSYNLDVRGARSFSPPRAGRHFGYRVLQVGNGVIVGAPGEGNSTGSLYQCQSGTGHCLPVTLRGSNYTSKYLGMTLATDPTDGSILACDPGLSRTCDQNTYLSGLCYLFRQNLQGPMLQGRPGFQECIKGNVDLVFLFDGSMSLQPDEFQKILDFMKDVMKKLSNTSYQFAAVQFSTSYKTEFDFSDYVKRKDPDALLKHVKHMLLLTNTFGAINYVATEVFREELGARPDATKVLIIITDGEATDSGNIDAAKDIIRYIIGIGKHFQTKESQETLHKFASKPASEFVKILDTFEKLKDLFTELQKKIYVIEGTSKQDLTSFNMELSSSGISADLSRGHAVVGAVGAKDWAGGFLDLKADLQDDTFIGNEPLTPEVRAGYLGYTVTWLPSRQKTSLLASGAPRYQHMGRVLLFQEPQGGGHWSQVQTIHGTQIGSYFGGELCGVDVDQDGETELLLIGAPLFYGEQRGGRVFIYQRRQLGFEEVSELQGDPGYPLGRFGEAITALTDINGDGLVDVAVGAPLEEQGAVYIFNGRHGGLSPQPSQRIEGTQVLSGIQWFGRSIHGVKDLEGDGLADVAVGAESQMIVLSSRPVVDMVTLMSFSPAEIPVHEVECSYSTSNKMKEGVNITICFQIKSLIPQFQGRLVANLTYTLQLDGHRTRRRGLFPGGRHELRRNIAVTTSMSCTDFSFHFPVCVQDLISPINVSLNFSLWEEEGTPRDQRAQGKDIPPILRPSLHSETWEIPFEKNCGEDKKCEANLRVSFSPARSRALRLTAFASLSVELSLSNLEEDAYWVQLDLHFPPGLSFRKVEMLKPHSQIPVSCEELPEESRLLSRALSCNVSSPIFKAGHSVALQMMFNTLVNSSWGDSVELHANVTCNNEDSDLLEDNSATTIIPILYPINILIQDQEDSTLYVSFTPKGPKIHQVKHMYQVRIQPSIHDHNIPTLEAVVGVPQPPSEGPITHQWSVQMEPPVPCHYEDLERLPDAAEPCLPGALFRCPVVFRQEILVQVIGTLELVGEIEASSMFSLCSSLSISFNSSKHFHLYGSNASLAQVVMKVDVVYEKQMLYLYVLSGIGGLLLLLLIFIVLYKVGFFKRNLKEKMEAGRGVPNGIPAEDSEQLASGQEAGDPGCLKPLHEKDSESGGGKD
Intercellular adhesion molecule (ICAM-1), Integrin alpha-L/beta-2, sequence (P05362 whole entry, further chain): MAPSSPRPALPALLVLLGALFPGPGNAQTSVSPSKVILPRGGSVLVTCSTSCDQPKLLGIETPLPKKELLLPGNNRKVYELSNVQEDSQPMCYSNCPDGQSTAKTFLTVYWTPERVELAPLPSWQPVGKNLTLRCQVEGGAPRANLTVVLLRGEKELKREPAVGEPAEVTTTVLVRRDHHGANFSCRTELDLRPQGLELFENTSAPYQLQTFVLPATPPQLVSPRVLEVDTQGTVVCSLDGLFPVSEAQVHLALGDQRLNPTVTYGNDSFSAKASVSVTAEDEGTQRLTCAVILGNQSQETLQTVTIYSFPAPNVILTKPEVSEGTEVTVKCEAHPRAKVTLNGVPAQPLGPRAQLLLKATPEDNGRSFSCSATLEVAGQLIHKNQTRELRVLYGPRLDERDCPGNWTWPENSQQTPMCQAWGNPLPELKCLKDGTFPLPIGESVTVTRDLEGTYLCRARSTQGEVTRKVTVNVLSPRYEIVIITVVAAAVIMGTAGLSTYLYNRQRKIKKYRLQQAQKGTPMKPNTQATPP
Intercellular adhesion molecule (ICAM-1), Integrin alpha-L/beta-2, sequence (P05107 whole entry): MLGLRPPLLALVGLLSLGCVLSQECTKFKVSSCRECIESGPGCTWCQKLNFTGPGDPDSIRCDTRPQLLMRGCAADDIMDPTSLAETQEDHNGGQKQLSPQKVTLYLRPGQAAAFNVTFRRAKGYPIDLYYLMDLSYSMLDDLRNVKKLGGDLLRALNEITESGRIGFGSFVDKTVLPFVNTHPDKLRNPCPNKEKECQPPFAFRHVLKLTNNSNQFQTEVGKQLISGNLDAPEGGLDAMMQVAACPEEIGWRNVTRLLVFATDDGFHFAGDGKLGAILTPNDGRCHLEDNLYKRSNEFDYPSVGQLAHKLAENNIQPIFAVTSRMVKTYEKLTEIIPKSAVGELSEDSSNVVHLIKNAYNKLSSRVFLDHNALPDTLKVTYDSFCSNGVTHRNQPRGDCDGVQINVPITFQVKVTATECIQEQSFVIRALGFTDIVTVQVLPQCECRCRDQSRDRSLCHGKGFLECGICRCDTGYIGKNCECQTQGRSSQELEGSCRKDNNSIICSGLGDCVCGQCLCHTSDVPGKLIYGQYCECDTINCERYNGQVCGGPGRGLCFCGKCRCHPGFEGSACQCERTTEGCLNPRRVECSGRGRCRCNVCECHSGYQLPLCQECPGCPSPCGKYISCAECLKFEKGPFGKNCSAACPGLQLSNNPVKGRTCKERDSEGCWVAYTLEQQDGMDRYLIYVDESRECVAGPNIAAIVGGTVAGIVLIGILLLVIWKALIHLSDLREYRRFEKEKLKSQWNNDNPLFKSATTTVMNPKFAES

Row | SMILES | IC50
1 | O=C1[C@@H]2C[C@H](Oc3ccc(-c4ccc(Br)cc4)cc3)CN2C(=O)N1c1cc(Cl)cc(Cl)c1 | 480 nM
2 | O=C1[C@@H]2C[C@@H](OCc3cccc(-c4ccc(Br)cc4)c3)CN2C(=O)N1c1cc(Cl)cc(Cl)c1 | 935 nM
3 | O=C1[C@@H]2C[C@H](OCc3cccc(-c4ccc(Br)cc4)c3)CN2C(=O)N1c1cc(Cl)cc(Cl)c1 | 85 nM
4 | CCN(Cc1cccc(-c2ccc(C#N)cc2)c1)[C@H]1C[C@H]2C(=O)N(c3cc(Cl)cc(Cl)c3)C(=O)N2C1 | 730 nM
5 | CN(Cc1cccc(-c2ccc(Br)cc2)c1)[C@H]1C[C@H]2C(=O)N(c3cc(Cl)cc(Cl)c3)C(=O)N2C1 | 175 nM
6 | O=C1[C@H]2C[C@@H](OCc3cccc(-c4ccc(Cl)cc4)c3)CN2C(=O)N1c1cc(Cl)cc(Cl)c1 | 620 nM
7 | N#Cc1ccc(-c2cccc(CO[C@H]3C[C@H]4C(=O)N(c5cc(Cl)cc(Cl)c5)C(=O)N4C3)c2)cc1 | 270 nM
8 | O=C1[C@@H]2C[C@H](SCc3cccc(-c4ccc(Br)cc4)c3)CN2C(=O)N1c1cc(Cl)cc(Cl)c1 | 290 nM
9 | O=C1[C@H]2C[C@@H](OCc3cccc(-c4ccc(Br)cc4)c3)CN2C(=O)N1c1cc(Cl)cc(Cl)c1 | 275 nM
10 | O=C1[C@@H]2C[C@H](OCc3cccc(-c4cccc(Br)c4)c3)CN2C(=O)N1c1cc(Cl)cc(Cl)c1 | 755 nM
11 | N#Cc1ccc(-c2cccc(CN[C@H]3C[C@H]4C(=O)N(c5cc(Cl)cc(Cl)c5)C(=O)N4C3)c2)cc1 | 175 nM
